Like-named read-outs stand apart in the source and are kept apart here.
System: patients with advanced metastatic cancer
Description: In this phase 1 study, dose escalation was followed by expansion cohorts of once-daily, oral M2698 in continuous 21-day cycles. Primary objectives were to determine the maximum tolerated dose (MTD), dose-limiting toxicities (DLTs), and recommended phase 2 dose (RP2D). Secondary objectives were to assess safety and tolerability, pharmacokinetics (PK, including food effect) and antitumor activity. Pharmacodynamic biomarker assessments were exploratory. Treatment was discontinued if there was disease progression, toxicity or consent withdrawal.
In Part 1, M2698 monotherapy was investigated in a dose escalation with a food effect cohort. In Part 2, M2698 was investigated as monotherapy (expansion cohort) to further characterize safety, tolerability and pharmacokinetics, and assess antitumor activity in PAM + patients without confounding markers (exploratory).
Dose escalation analysis included all patients who experienced a DLT and those who received ≥ 80% of planned M2698 doses in cycle 1 without experiencing a DLT. Safety analysis included all patients who received ≥ 1 dose of M2698. PK analysis included all patients who received ≥ 1 dose of M2698 and had measurable plasma concentrations. Dose proportionality was tested using the power model (linear regression approach on the log -transformed scale).

NC(=O)c1cccc2c(N[C@H](CN3CCC3)c3ccc(Cl)c(C(F)(F)F)c3)ncnc12 [M2698]
M2698-related TEAE: Hyperhidrosis (30 mg n=3): 0 | M2698-related TEAE: Hypokalaemia (30 mg n=3): 1 | M2698-related TEAE: Hypomagnesaemia (30 mg n=3): 0 | M2698-related TEAE: Insomnia (30 mg n=3): 0 | M2698-related TEAE: Investigations (30 mg n=3): 0 | M2698-related TEAE: Lipase increased (30 mg n=3): 0 | M2698-related TEAE: Lymphopenia (30 mg n=3): 0 | M2698-related TEAE: Metabolism and nutrition disorders (30 mg n=3): 1 | M2698-related TEAE: Mucosal inflammation (30 mg n=3): 0 | M2698-related TEAE: Nausea (30 mg n=3): 0 | M2698-related TEAE: Nervous system disorders (30 mg n=3): 0 | M2698-related TEAE: Nightmare (30 mg n=3): 0 | M2698-related TEAE: Onychomadesis (30 mg n=3): 0 | M2698-related TEAE: Paranoia (30 mg n=3): 0 | M2698-related TEAE: Photosensitivity reaction (30 mg n=3): 0 | M2698-related TEAE: Posterior reversible encephalopathy syndrome (30 mg n=3): 0 | M2698-related TEAE: Pruritus generalised (30 mg n=3): 0 | M2698-related TEAE: Psychiatric disorders (30 mg n=3): 0 | M2698-related TEAE: Rash (30 mg n=3): 0 | M2698-related TEAE: Rash maculo-papular (30 mg n=3): 1 | M2698-related TEAE: Skin and subcutaneous tissue disorders (30 mg n=3): 1 | M2698-related TEAE: Subjects with at least one event (30 mg n=3): 2 | M2698-related TEAE: Transaminases increased (30 mg n=3): 0 | M2698-related TEAE: Tremor (30 mg n=3): 0 | M2698-related TEAE: Vision blurred (30 mg n=3): 1 | M2698-related TEAE: Vomiting (30 mg n=3): 0 | M2698-related TEAE: White blood cell count decreased (30 mg n=3): 0 | M2698-related TEAE: Abnormal dreams (60 mg n=6): 0 | M2698-related TEAE: Affect lability (60 mg n=6): 1 | M2698-related TEAE: Alanine aminotransferase increased (60 mg n=6): 1 | M2698-related TEAE: Amylase increased (60 mg n=6): 1 | M2698-related TEAE: Anaemia (60 mg n=6): 0 | M2698-related TEAE: Angina pectoris (60 mg n=6): 1 | M2698-related TEAE: Anxiety (60 mg n=6): 0 | M2698-related TEAE: Aphasia (60 mg n=6): 0 | M2698-related TEAE: Ataxia (60 mg n=6): 0 | M2698-related TEAE: Blood and lymphatic system disorders (60 mg n=6): 0 | M2698-related TEAE: Blood creatine phosphokinase increased (60 mg n=6): 0 | M2698-related TEAE: Blood creatinine increased (60 mg n=6): 0 | M2698-related TEAE: Cardiac disorders (60 mg n=6): 1 | M2698-related TEAE: Cognitive disorder (60 mg n=6): 0 | M2698-related TEAE: Constipation (60 mg n=6): 0 | M2698-related TEAE: Decreased appetite (60 mg n=6): 0 | M2698-related TEAE: Delusion (60 mg n=6): 0 | M2698-related TEAE: Depression (60 mg n=6): 0 | M2698-related TEAE: Diarrhoea (60 mg n=6): 0 | M2698-related TEAE: Diarrhoea haemorrhagic (60 mg n=6): 0 | M2698-related TEAE: Dizziness (60 mg n=6): 0 | M2698-related TEAE: Dry eye (60 mg n=6): 0 | M2698-related TEAE: Dry mouth (60 mg n=6): 0 | M2698-related TEAE: Dysgeusia (60 mg n=6): 0 | M2698-related TEAE: Dyspepsia (60 mg n=6): 0 | M2698-related TEAE: Dysphagia (60 mg n=6): 0 | M2698-related TEAE: Energy increased (60 mg n=6): 0 | M2698-related TEAE: Erythema (60 mg n=6): 0 | M2698-related TEAE: Euphoric mood (60 mg n=6): 0 | M2698-related TEAE: Eye disorders (60 mg n=6): 0 | M2698-related TEAE: Fatigue (60 mg n=6): 0 | M2698-related TEAE: Gamma-glutamyltransferase increased (60 mg n=6): 0 | M2698-related TEAE: Gastrointestinal disorders (60 mg n=6): 0 | M2698-related TEAE: Gastrooesophageal reflux disease (60 mg n=6): 0 | M2698-related TEAE: General disorders and administration site conditions (60 mg n=6): 0 | M2698-related TEAE: Headache (60 mg n=6): 0 | M2698-related TEAE: Hyperhidrosis (60 mg n=6): 0 | M2698-related TEAE: Hypokalaemia (60 mg n=6): 0 | M2698-related TEAE: Hypomagnesaemia (60 mg n=6): 0 | M2698-related TEAE: Insomnia (60 mg n=6): 0 | M2698-related TEAE: Investigations (60 mg n=6): 1 | M2698-related TEAE: Lipase increased (60 mg n=6): 1 | M2698-related TEAE: Lymphopenia (60 mg n=6): 0 | M2698-related TEAE: Metabolism and nutrition disorders (60 mg n=6): 0 | M2698-related TEAE: Mucosal inflammation (60 mg n=6): 0 | M2698-related TEAE: Nausea (60 mg n=6): 0 | M2698-related TEAE: Nervous system disorders (60 mg n=6): 0 | M2698-related TEAE: Nightmare (60 mg n=6): 0 | M2698-related TEAE: Onychomadesis (60 mg n=6): 1 | M2698-related TEAE: Paranoia (60 mg n=6): 0 | M2698-related TEAE: Photosensitivity reaction (60 mg n=6): 0 | M2698-related TEAE: Posterior reversible encephalopathy syndrome (60 mg n=6): 0 | M2698-related TEAE: Pruritus generalised (60 mg n=6): 0 | M2698-related TEAE: Psychiatric disorders (60 mg n=6): 1 | M2698-related TEAE: Rash (60 mg n=6): 0 | M2698-related TEAE: Rash maculo-papular (60 mg n=6): 0 | M2698-related TEAE: Skin and subcutaneous tissue disorders (60 mg n=6): 1 | M2698-related TEAE: Subjects with at least one event (60 mg n=6): 2 | M2698-related TEAE: Transaminases increased (60 mg n=6): 0 | M2698-related TEAE: Tremor (60 mg n=6): 0 | M2698-related TEAE: Vision blurred (60 mg n=6): 0 | M2698-related TEAE: Vomiting (60 mg n=6): 0 | M2698-related TEAE: White blood cell count decreased (60 mg n=6): 0 | DLT observed (60 mg, n = 1, resolved following treatment interruption): grade 3 lipase increase | M2698-related TEAE: Abnormal dreams (75 mg n=4): 1 | M2698-related TEAE: Affect lability (75 mg n=4): 0 | M2698-related TEAE: Alanine aminotransferase increased (75 mg n=4): 0 | M2698-related TEAE: Amylase increased (75 mg n=4): 0 | M2698-related TEAE: Anaemia (75 mg n=4): 0 | M2698-related TEAE: Angina pectoris (75 mg n=4): 0 | M2698-related TEAE: Anxiety (75 mg n=4): 0 | M2698-related TEAE: Aphasia (75 mg n=4): 0

Source: article PMC8371902, “Phase 1 study of M2698, a p70S6K/AKT dual inhibitor, in patients with advanced cancer” (Journal of Hematology & Oncology, 2021)
